{
  "source": "PubChem BioAssay (NCI)",
  "experiment_in_all_cases": "growth of human tumour cells (NCI), 384-well format",
  "key": {"MALME-3M melanoma": {"system": "MALME-3M melanoma"}, "CCRF-CEM leukemia": {"system": "CCRF-CEM leukemia"}, "SK-MEL-2 melanoma": {"system": "SK-MEL-2 melanoma"}, "NCI-H322M lung": {"system": "NCI-H322M lung"}, "SW-620 colon": {"system": "SW-620 colon"}, "HCT-116 colon": {"system": "HCT-116 colon"}, "U251 glioblastoma": {"system": "U251 glioblastoma"}, "HCT-15 colon": {"system": "HCT-15 colon"}, "CAKI-1 renal": {"system": "CAKI-1 renal"}, "UACC-257 melanoma": {"system": "UACC-257 melanoma"}, "HCC-2998 colon": {"system": "HCC-2998 colon"}, "NCI/ADR-RES ovarian": {"system": "NCI/ADR-RES ovarian"}, "UACC-62 melanoma": {"system": "UACC-62 melanoma"}, "NCI-H226 lung": {"system": "NCI-H226 lung"}, "MDA-MB-468 breast": {"system": "MDA-MB-468 breast"}, "SN12C renal": {"system": "SN12C renal"}, "NCI-H460 NSCLC": {"system": "NCI-H460 NSCLC"}, "786-0 renal": {"system": "786-0 renal"}, "HL-60(TB) leukemia": {"system": "HL-60(TB) leukemia"}, "SK-OV-3 ovarian": {"system": "SK-OV-3 ovarian"}, "SK-MEL-28 melanoma": {"system": "SK-MEL-28 melanoma"}, "M14 melanoma": {"system": "M14 melanoma"}, "SNB-19 CNS": {"system": "SNB-19 CNS"}, "DU-145 prostate": {"system": "DU-145 prostate"}, "OVCAR-5 ovarian": {"system": "OVCAR-5 ovarian"}, "HOP-62 NSCLC": {"system": "HOP-62 NSCLC"}, "K-562 leukemia": {"system": "K-562 leukemia"}, "HOP-92 NSCLC": {"system": "HOP-92 NSCLC"}, "RXF 393 renal": {"system": "RXF 393 renal"}},
  "note": "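GI50 is the concentration that inhibits growth by half. TGI: total growth inhibition.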",
  "data": [
    {"smiles": "Nc1ncn([C@H]2C[C@H](OP(=O)(O)OC[C@H]3O[C@@H](n4cnc5c(=O)[nH]c(N)nc54)C[C@@H]3O)[C@@H](CO)O2)c(=O)n1", "values": [
      {"measurement": "GI50", "setting": "MALME-3M melanoma", "value": 20.6, "unit": "µM"},
      {"measurement": "TGI", "setting": "MALME-3M melanoma", "value": "> 100", "unit": "µM"},
      {"measurement": "GI50", "setting": "CCRF-CEM leukemia", "value": 0.0724, "unit": "µM"},
      {"measurement": "TGI", "setting": "CCRF-CEM leukemia", "value": 1.88, "unit": "µM"},
      {"measurement": "GI50", "setting": "SK-MEL-2 melanoma", "value": "> 100", "unit": "µM"},
      {"measurement": "TGI", "setting": "SK-MEL-2 melanoma", "value": "> 100", "unit": "µM"},
      {"measurement": "GI50", "setting": "NCI-H322M lung", "value": 28.8, "unit": "µM"},
      {"measurement": "TGI", "setting": "NCI-H322M lung", "value": "> 100", "unit": "µM"},
      {"measurement": "GI50", "setting": "SW-620 colon", "value": 18.5, "unit": "µM"},
      {"measurement": "TGI", "setting": "SW-620 colon", "value": "> 100", "unit": "µM"},
      {"measurement": "GI50", "setting": "HCT-116 colon", "value": 2.79, "unit": "µM"},
      {"measurement": "TGI", "setting": "HCT-116 colon", "value": "> 100", "unit": "µM"},
      {"measurement": "GI50", "setting": "U251 glioblastoma", "value": 11.2, "unit": "µM"},
      {"measurement": "TGI", "setting": "U251 glioblastoma", "value": "> 100", "unit": "µM"},
      {"measurement": "GI50", "setting": "HCT-15 colon", "value": "> 100", "unit": "µM"},
      {"measurement": "TGI", "setting": "HCT-15 colon", "value": "> 100", "unit": "µM"},
      {"measurement": "GI50", "setting": "CAKI-1 renal", "value": 7.79, "unit": "µM"},
      {"measurement": "TGI", "setting": "CAKI-1 renal", "value": "> 100", "unit": "µM"},
      {"measurement": "GI50", "setting": "UACC-257 melanoma", "value": "> 100", "unit": "µM"},
      {"measurement": "TGI", "setting": "UACC-257 melanoma", "value": "> 100", "unit": "µM"},
      {"measurement": "GI50", "setting": "HCC-2998 colon", "value": 2.82, "unit": "µM"},
      {"measurement": "TGI", "setting": "HCC-2998 colon", "value": "> 100", "unit": "µM"},
      {"measurement": "GI50", "setting": "NCI/ADR-RES ovarian", "value": "> 100", "unit": "µM"},
      {"measurement": "TGI", "setting": "NCI/ADR-RES ovarian", "value": "> 100", "unit": "µM"},
      {"measurement": "GI50", "setting": "UACC-62 melanoma", "value": 26.6, "unit": "µM"},
      {"measurement": "TGI", "setting": "UACC-62 melanoma", "value": "> 100", "unit": "µM"},
      {"measurement": "GI50", "setting": "NCI-H226 lung", "value": 32.7, "unit": "µM"},
      {"measurement": "TGI", "setting": "NCI-H226 lung", "value": "> 100", "unit": "µM"},
      {"measurement": "GI50", "setting": "MDA-MB-468 breast", "value": 0.0431, "unit": "µM"},
      {"measurement": "TGI", "setting": "MDA-MB-468 breast", "value": 0.368, "unit": "µM"},
      {"measurement": "GI50", "setting": "SN12C renal", "value": 5.84, "unit": "µM"},
      {"measurement": "TGI", "setting": "SN12C renal", "value": 26.4, "unit": "µM"},
      {"measurement": "GI50", "setting": "NCI-H460 NSCLC", "value": 0.763, "unit": "µM"},
      {"measurement": "TGI", "setting": "NCI-H460 NSCLC", "value": "> 100", "unit": "µM"},
      {"measurement": "GI50", "setting": "786-0 renal", "value": 3.34, "unit": "µM"},
      {"measurement": "TGI", "setting": "786-0 renal", "value": 31.1, "unit": "µM"},
      {"measurement": "GI50", "setting": "HL-60(TB) leukemia", "value": 1.16, "unit": "µM"},
      {"measurement": "TGI", "setting": "HL-60(TB) leukemia", "value": 18.2, "unit": "µM"},
      {"measurement": "GI50", "setting": "SK-OV-3 ovarian", "value": "> 100", "unit": "µM"},
      {"measurement": "TGI", "setting": "SK-OV-3 ovarian", "value": "> 100", "unit": "µM"},
      {"measurement": "GI50", "setting": "SK-MEL-28 melanoma", "value": 26.1, "unit": "µM"},
      {"measurement": "TGI", "setting": "SK-MEL-28 melanoma", "value": "> 100", "unit": "µM"},
      {"measurement": "GI50", "setting": "M14 melanoma", "value": 0.922, "unit": "µM"},
      {"measurement": "TGI", "setting": "M14 melanoma", "value": "> 100", "unit": "µM"},
      {"measurement": "GI50", "setting": "SNB-19 CNS", "value": "> 100", "unit": "µM"},
      {"measurement": "TGI", "setting": "SNB-19 CNS", "value": "> 100", "unit": "µM"},
      {"measurement": "GI50", "setting": "DU-145 prostate", "value": 33.3, "unit": "µM"},
      {"measurement": "TGI", "setting": "DU-145 prostate", "value": "> 100", "unit": "µM"},
      {"measurement": "GI50", "setting": "OVCAR-5 ovarian", "value": 77.6, "unit": "µM"},
      {"measurement": "TGI", "setting": "OVCAR-5 ovarian", "value": "> 100", "unit": "µM"},
      {"measurement": "GI50", "setting": "HOP-62 NSCLC", "value": 1.83, "unit": "µM"},
      {"measurement": "TGI", "setting": "HOP-62 NSCLC", "value": 53.3, "unit": "µM"},
      {"measurement": "GI50", "setting": "K-562 leukemia", "value": 1.48, "unit": "µM"},
      {"measurement": "TGI", "setting": "K-562 leukemia", "value": "> 100", "unit": "µM"},
      {"measurement": "GI50", "setting": "HOP-92 NSCLC", "value": 54.5, "unit": "µM"},
      {"measurement": "TGI", "setting": "HOP-92 NSCLC", "value": "> 100", "unit": "µM"},
      {"measurement": "GI50", "setting": "RXF 393 renal", "value": 1.05, "unit": "µM"}
    ]}
  ]
}
